Assay results taken from US6156790A, “C-10 carbon-substituted artemisinin-like trioxane compounds having antimalarial, antiproliferative and antitumor activities” (priority 1997, dated 2000).

Experiments:
[1] = test system: chloroquine-sensitive P. falciparum (NF54); assay: In vitro antimalarial activity ([3H]hypoxanthine incorporation); type: cell-based; details: for IC50: Plasmodium falciparum, NF54; for IC50 compared with artemisinin: in words
Description: Activity was determined by measuring the incorporation of [^3 H]hypoxanthine, by the methods of Desjardins and Milhouse, with the following modofications, see […].; Haynes, […]. Antimicrob. Agents Chemother., 16:710 (1979); Milhous, W. K.; Weatherly, […].; Antimicrob. Agents Chemother., 27: 525 (1985). […] Parasitemia was maintained at 0.05-3% and doubling time at approximately 15 hours by twice weekly change of medium and replenishment with fresh erythrocytes. […] Sigma-Aldrich #27,043-1). DMSO solutions were diluted 500-fold in medium, serially diluted in 0.2% DMSO in medium (to maintain constant solvent concentration), then 100 μL aliquots were pipetted into microtiter plate wells (Costar 3595). […] Plates included at least 8 wells of no drug controls (4 with and 4 without DMSO) and 4 wells of uninfected erythrocytes. […] Cells were harvested (Brandel MB-48R) onto GF-C glass filters (Brandel). The filters were washed five times with 3 mL water per sample spot, dried under a heat lamp, and counted (Beckman Model LS-6500) in scintillation cocktail (ICN Cytoscint). Decays per minute (dpm) values were downloaded and analyzed (Power MFacintosh 7200/90; Microsoft Excel 5.0), to yield the mean and standard deviation at each drug concentration.

60 cell line panel = assay: NCI 60 cell line screen, whole panel; type: cell-based; details: panel
CAKI-1 = assay: NCI 60 cell line screen (SRB), renal cancer; details: Homo sapiens
NCI-H23 = assay: NCI 60 cell line screen (SRB), non-small cell lung cancer; type: cell-based; details: Homo sapiens, read-out: Log10 GI50 (converted)
EKVX = assay: as above; type: cell-based; details: Homo sapiens, read-out: Log10 GI50 (converted)
IGROVI = assay: cells; details: 60 cell, read-out: Log10 GI50 (converted)
UACC-62 = assay: cells; type: cell-based; details: Homo sapiens, read-out: Log10 TGI (converted)
HL-60(TB) = assay: cells; details: Homo sapiens, HL-60, read-out: Log10 LC50 (converted)
RXF 393 = assay: cells; details: Homo sapiens
ACHN = assay: cells; details: Homo sapiens
[2] = test system: murine keratinocyte cell line PE; assay: growth inhibition of PE cells (MTT assay); type: cell-based; details: 100 nanomolar
Description: To determine the inhibitory effect of the compositions of the present invention on cell proliferation, screening assays were performed on a murine keratinocyte cell line PE. Cell line PE was chosen for its particular sensitivity to the induction of ornithine decarboxylase (ODC) activity by the extensively characterized tumor promoter TPA. […] PE cell culture medium consisted of Eagle's minimal essential medium without calcium chloride (Whittaker Bioproducts, Walkersville, Mass.) supplemented with 8% chelexed fetal calf serum and 1% antibiotic-antimycotic (Gibco BRL) and the addition of CaCl2 to 0.05 mM Ca^++.
Growth Inhibition. Growth curves, shown in FIGS. 1 and 2, for PE cells treated with calcitriol and the C-10 carbon-substituted dimers 21, 22, 26, 27, and 28 generated by assay for the reduction of the tetrazolium-based compound MTT, see Charmichael, et al., Cancer Res., 47:936-942 (1987). […] PE cells were seeded at a density of 5,000 cells/well in 50 μL of medium into 96-well microtiter plates. Twelve hours later, the medium was removed, and cells were treated with 100 μL of fresh medium into which the appropriate amount of calcitrol or analog dissolved in dimethyl sulfoxide (DMSO) had been added, with the concentration of DMSO held constant at 0.1%. […] At 24-hour intervals following the initial treatment of the cells with compounds, 0.1 mg (50 μL of a 2 mg/mL solution) of MTT was added to each well. After 4 hours, the MTT was removed and DMSO added to dissolve the blue formazan dye. Using a microtiter plate reader, the A505 was then determined and cell number calculated from blank-subtracted absorbance values.

C[C@H]1[C@@H](C#Cc2ccc(Cl)cc2)O[C@@H]2O[C@@]3(C)CC[C@H]4[C@H](C)CC[C@@H]1[C@@]24OO3 [Monomer 9, 10β-(4'-Chlorophenylethynyl) deoxoartemisinin]
IC50 ([1]; survey data (preliminary)): 16 nM

COc1ccc([C@@H]2O[C@@H]3O[C@@]4(C)CC[C@H]5[C@H](C)CC[C@@H]([C@H]2C)[C@@]35OO4)c(OC)c1 [Monomer 13]
IC50 ([1]; survey data (preliminary)): 8.9 nM | IC50 compared with artemisinin [1]: lower than that of artemisinin

CC(=O)O[C@H]1C(=O)[C@@]2(C)[C@H]([C@H](OC(=O)c3ccccc3)[C@]3(O)C[C@H](OC(=O)[C@H](O)[C@@H](NC(=O)c4ccccc4)c4ccccc4)C(C)=C1C3(C)C)[C@]1(OC(C)=O)CO[C@@H]1C[C@@H]2O [Paclitaxel, paclitaxel, reference compound]
GI50 (60 cell line panel; 60 cell, read-out: Log10 GI50 Delta (converted)): 0.0708 nM | Log10 TGI Delta (60 cell line panel): -4.54 | Log10 TGI Range (60 cell line panel): 7.20 | CC50 (CAKI-1; CAKI-1, read-out: Log10 LC50 (converted)): > 100000 nM | IC (TGI) (CAKI-1; CAKI-1, read-out: Log10 TGI): 91200 nM | GI50 (NCI-H23): 0.0759 nM | GI50 (EKVX): 0.214 nM | GI50 (IGROVI): 2.45 nM | IC (TGI) (UACC-62): 19500 nM | CC50 (HL-60(TB)): > 29500 nM | CC50 (RXF 393; RXF 393, read-out: Log10 LC50 (converted)): > 100000 nM | IC (TGI) (RXF 393; RXF 393, read-out: Log10 TGI): > 100000 nM | CC50 (ACHN; read-out: Log10 LC50 (converted)): 35500 nM | IC (TGI) (ACHN; read-out: Log10 TGI): 12600 nM

C[C@H]1[C@@H](C#Cc2ccc(C#C[C@H]3O[C@@H]4O[C@@]5(C)CC[C@H]6[C@H](C)CC[C@@H]([C@H]3C)[C@@]46OO5)cc2)O[C@@H]2O[C@@]3(C)CC[C@H]4[C@H](C)CC[C@@H]1[C@@]24OO3 [Dimer 28]
antiproliferative activity compared with calcitriol [2]: at least as antiproliferative as calcitrol

COc1cc(OC)c([C@@H]2O[C@@H]3O[C@@]4(C)CC[C@H]5[C@H](C)CC[C@@H]([C@H]2C)[C@@]35OO4)cc1[C@@H]1O[C@@H]2O[C@@]3(C)CC[C@H]4[C@H](C)CC[C@@H]([C@H]1C)[C@@]24OO3 [Dimer 26]
antiproliferative activity compared with calcitriol [2]: at least as antiproliferative as calcitrol

COc1ccc2cc([C@@H]3O[C@@H]4O[C@@]5(C)CC[C@H]6[C@H](C)CC[C@@H]([C@H]3C)[C@@]46OO5)c(OC)cc2c1 [Monomer 15, 10α-(2',7'-dimethoxynaphth-3'-yl)deoxoartemisinin]
IC50 ([1]; survey data (preliminary)): 11 nM

C[C@H]1[C@H](c2ccco2)O[C@@H]2O[C@@]3(C)CC[C@H]4[C@H](C)CC[C@@H]1[C@@]24OO3 [Monomer 17]
IC50 ([1]; survey data (preliminary)): 1.5 nM | IC50 compared with artemisinin [1]: lower than that of artemisinin

COc1cc(OC)c([C@@H]2O[C@@H]3O[C@@]4(C)CC[C@H]5[C@H](C)CC[C@@H]([C@H]2C)[C@@]35OO4)c(OC)c1 [Monomer 14]
IC50 ([1]; survey data (preliminary)): 11 nM

CO[C@H]1O[C@@H]2O[C@@]3(C)CC[C@H]4[C@H](C)CC[C@@H]([C@H]1C)[C@@]24OO3 [Artemether, artemether, reference compound]
IC50 [1]: 5.4 nM | IC50 compared with artemisinin [1]: lower than that of artemisinin

C[C@H]1[C@@H](C#Cc2cccc(C#C[C@H]3O[C@@H]4O[C@@]5(C)CC[C@H]6[C@H](C)CC[C@@H]([C@H]3C)[C@@]46OO5)c2)O[C@@H]2O[C@@]3(C)CC[C@H]4[C@H](C)CC[C@@H]1[C@@]24OO3 [Dimer 27]
antiproliferative activity compared with calcitriol [2]: at least as antiproliferative as calcitrol

C[C@H]1[C@H](c2cccn2C)O[C@@H]2O[C@@]3(C)CC[C@H]4[C@H](C)CC[C@@H]1[C@@]24OO3 [Monomer 16, 10α-(N-methylpyrrol-2'-yl)deoxoartemisinin]
IC50 ([1]; survey data (preliminary)): 8.4 nM | IC50 compared with artemisinin [1]: lower than that of artemisinin
